The target in data set [1] is T1, Serine/threonine-protein phosphatase 5 (Homo sapiens, UniProt P53041).
T1 sequence (P53041 whole entry): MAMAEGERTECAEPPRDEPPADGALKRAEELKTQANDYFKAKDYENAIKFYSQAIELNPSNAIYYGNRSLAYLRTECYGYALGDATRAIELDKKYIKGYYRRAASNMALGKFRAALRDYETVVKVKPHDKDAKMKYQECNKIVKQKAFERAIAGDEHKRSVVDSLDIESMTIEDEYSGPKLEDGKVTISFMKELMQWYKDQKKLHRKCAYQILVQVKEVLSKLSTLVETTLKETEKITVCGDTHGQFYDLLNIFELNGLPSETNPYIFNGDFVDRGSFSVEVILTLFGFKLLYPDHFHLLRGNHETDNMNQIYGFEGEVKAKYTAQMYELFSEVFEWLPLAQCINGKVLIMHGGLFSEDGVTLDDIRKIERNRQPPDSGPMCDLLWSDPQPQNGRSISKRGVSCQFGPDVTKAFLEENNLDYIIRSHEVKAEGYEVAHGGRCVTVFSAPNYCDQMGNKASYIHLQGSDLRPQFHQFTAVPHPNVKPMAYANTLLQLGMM
The data set is described as follows: Activation of His-tagged human PP5 extracted from Escherichia coli BL21 using pNPP as substrate assessed as increase in phosphatase activity incubated for 30 mins by spectrophotometric analysis.

Data set [2] concerns the target T2, Serine/threonine-protein phosphatase 5 (Homo sapiens) (UniProt P53041).
T2 sequence (whole entry): T1 sequence (P53041 whole entry)
Put plainly: Binding affinity to His-tagged human PP5 extracted from Escherichia coli BL21 at 200 uM by STD-NMR analysis. The settings on record: filed as activator.

Data set [3] concerns T3, Serine/threonine-protein phosphatase 5 (Homo sapiens), P53041 [V429A].
T3 sequence (whole entry): T1 sequence (P53041 whole entry) with V429A
The data set is described as follows: Binding affinity to PP5 V429A mutant (unknown origin) by ITC analysis. For orientation: Isothermal titration calorimetry measures the heat released or taken up as one component is titrated into another.

Data set [4] has as its target Serine/threonine-protein phosphatase PP1-beta catalytic subunit (Homo sapiens) (UniProt P62140). The data set is described as follows: Inhibition of PP1B (unknown origin) using DiFMUP as substrate at 0.01 to 1000 uM. Conditions: dose 0.01-1000 µM.
For data set [5], the target named is T4, Tyrosine-protein phosphatase non-receptor type 2 (Homo sapiens) (UniProt P17706).
T4 sequence (whole entry): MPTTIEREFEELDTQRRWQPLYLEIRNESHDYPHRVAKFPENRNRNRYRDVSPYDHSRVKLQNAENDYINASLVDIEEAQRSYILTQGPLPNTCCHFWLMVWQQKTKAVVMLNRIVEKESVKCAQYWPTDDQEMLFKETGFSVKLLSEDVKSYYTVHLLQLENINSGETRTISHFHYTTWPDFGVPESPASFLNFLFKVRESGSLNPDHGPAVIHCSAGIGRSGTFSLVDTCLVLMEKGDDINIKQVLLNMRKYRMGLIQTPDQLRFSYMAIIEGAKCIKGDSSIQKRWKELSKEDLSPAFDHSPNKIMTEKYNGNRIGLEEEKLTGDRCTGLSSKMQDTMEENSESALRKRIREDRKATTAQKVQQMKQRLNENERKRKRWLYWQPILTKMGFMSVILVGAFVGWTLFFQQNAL
Put plainly: Inhibition of PTPN2 (unknown origin) using DiFMUP as substrate at 0.01 to 1000 uM. The settings on record: dose 0.01-1000 µM.

Data set [6] has as its target T5, Tyrosine-protein phosphatase non-receptor type 11 (Homo sapiens) (UniProt Q06124).
T5 sequence (whole entry): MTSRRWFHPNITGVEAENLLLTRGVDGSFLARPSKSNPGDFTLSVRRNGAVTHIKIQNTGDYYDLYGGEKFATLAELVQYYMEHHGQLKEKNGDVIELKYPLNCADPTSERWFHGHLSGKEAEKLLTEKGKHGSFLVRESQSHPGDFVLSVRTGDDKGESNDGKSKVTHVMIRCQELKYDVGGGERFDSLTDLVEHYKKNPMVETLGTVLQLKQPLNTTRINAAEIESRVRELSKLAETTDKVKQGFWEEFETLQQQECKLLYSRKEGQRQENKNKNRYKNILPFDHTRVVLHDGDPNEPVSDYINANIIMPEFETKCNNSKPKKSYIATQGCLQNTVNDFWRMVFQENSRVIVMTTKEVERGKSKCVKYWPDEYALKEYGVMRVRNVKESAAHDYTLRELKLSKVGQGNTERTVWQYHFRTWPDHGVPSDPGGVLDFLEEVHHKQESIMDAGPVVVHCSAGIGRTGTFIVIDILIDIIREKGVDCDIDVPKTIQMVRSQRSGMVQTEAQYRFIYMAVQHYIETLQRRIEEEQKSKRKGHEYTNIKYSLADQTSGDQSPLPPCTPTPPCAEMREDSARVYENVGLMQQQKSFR
The data set is described as follows: Inhibition of SHP2 (unknown origin) using DiFMUP as substrate at 0.01 to 1000 uM. Conditions: dose 0.01-1000 µM.

Data set [7] has as its target T2, Serine/threonine-protein phosphatase 5 (Homo sapiens). The data set is described as follows: Binding affinity to human PP5 extracted from Escherichia coli BL21 using CDC37 as substrate assessed as increase in dephosphorylation of p-CDC37 at S13 residue at 25 uM by Western blot analysis. Conditions: filed as activator, time 0.5-2 hrs, TDE = time-dependent effect. (In western blotting, separated proteins are transferred to a membrane and probed.)

For data set [8] the target is unchanged. Put plainly: Activation of PP5 in human HCT-116 cells assessed as decrease in intracellular S13 residue phosphorylated CDC37 level incubated for 24 hrs by Western blot analysis. The settings on record: filed as activator, dose <= 100.0 µM. The data set is classed as cell-based.
Data set [9] has the same target. The data set is described as follows: Activation of PP5 in human HCT-116 cells assessed as decrease in intracellular S13 residue phosphorylated CDC37 level at 100 uM by Western blot analysis. Type of data set: cell-based. The settings on record: filed as activator, time <= 24.0 hrs, TDE = time-dependent effect.
For data set [10], the system named is HCT-116. The data set is described as follows: Effect on HSP70 expression level in human HCT-116 cells at 1 to 100 uM incubated for 24 hrs by Western blot analysis. Type of data set: functional, cell-based. The settings on record: dose 1-100 µM.
Data set [11] relates to HCT-116. The data set is described as follows: Downregulation of AT13387-induced HSP70 expression in PP5 Knockout human HCT-116 cells at 50 uM incubated for 24 hrs by Western blot analysis. Type of data set: functional, cell-based.
Data set [12] concerns HCT-116. The data set is described as follows: Downregulation of AT13387-induced HSP70 mRNA expression in human HCT-116 cells at 50 uM incubated for 24 hrs by qRT-PCR analysis. Type of data set: functional, cell-based. In general terms: Quantitative PCR measures a nucleic acid by following its amplification.
Data set [13] can be described thus: AUC (0 to t) in Sprague-Dawley rat at 10 mg/kg, ip measured after 8 hrs by LC-MS/MS analysis. The data set is classed as ADME, organism-based. Conditions: in vivo.

Molecules are shown by their SMILES. Numbering of substitutions follows the chain as printed. pEC50: −log10 of the molar value. The source made the active and inactive calls. The calls are words filed in the database; no cut-off is given here.

Chain of Serine/threonine-protein phosphatase PP1-beta catalytic subunit (Homo sapiens) (P62140 whole entry): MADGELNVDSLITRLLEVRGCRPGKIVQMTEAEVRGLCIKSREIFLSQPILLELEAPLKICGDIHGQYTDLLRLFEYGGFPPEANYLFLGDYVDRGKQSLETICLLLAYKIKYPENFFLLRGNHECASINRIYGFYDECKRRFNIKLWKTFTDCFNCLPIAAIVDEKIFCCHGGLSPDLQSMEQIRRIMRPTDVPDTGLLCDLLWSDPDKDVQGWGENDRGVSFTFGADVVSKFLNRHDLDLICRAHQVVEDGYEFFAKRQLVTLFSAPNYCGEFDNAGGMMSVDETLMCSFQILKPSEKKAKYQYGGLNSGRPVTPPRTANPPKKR

By pEC50 is commonly meant −log10 of the EC50, conventionally taken in molar units. The AUC(0-t) is exposure summed from dosing to a finite time, without extrapolation to infinity. Higher therefore signals high exposure. Turning to `N=c1oc2cc(F)cc(F)c2cc1C(N)=S`, the pEC50 in [1] is 4.28. In addition, the outcome (in [2]; in the data set with HCT-116 [12]) was Active. The result (in data set [3]; with HCT-116 [10]; with HCT-116 [11]) was inactive. The inhibition result in data set [4], in data set [5] and in [6] was “inactive” throughout. The Activity entry was “Tde” in data set [7], “Dose-Dependent Effect” in [8] and “Tde” in [9]. The AUC(0-t) at 8 h in [13] is 111 ng·h/mL.

Values taken from ChEMBL document CHEMBL5579878, “Allosteric Activation of Protein Phosphatase 5 with Small Molecules” (J Med Chem, 2024).
